From US20140294856A1, “COMBINATION TREATMENT COMPRISING A HDAC6 INHIBITOR AND AN AKT INHIBITOR” (priority 2011, published 2014)

Tests used:
[1] = test system: panel of 19 cancer cell lines; assay: Growth inhibition, SRB assay, 72 hours; type: cell-based
HCT116 xenograft = assay: [18F]FLT-PET tumour uptake; type: in vivo, mice
Experimental: FIG. 6. [18F]-FLT uptake at 24 h and 48 h following a single injection I.P. of HDAC-C1A at 40 mg/kg in HCT116 xenograft model. A. PET/CT (bottom) and corresponding CT (top) images of the [18]-FLT uptake. […] The tumour is indicated by an arrow. B. Area under the curve data. The results are the mean+/−SEM of at least 4 animals per group.
FIG. 13. […] A. relative tumour volume to day 1. […] B. Corresponding body weights throughout the course of the experiment. […] C. Time activity curve represent [18F]FLT uptake over 60 minutes. Results are mean of at least 3 animals. D. Area under the curve, [18F]FLT uptake in the tumour over 60 minutes. E. NUV60, [18F]FLT uptake in the tumour at 60 minutes. […] The levels of total AKT are represented as loading control.
FIG. 16. [18F]FLT uptake following treatment with BEZ235 and in combination with HDAC-C1A after 48 hours in a HCT116 xenograft model. Mice were treated with either BEZ235 alone at 20 mg/kg/day for 2 days P.O., with 1HDACC1A at 20 mg/kg/day for 2 days I.P. or with a combination HDAC-C1A (20 mg/kg/day for 1 or 2 days)+BEZ-235 (20 mg/kg/day for 1 or 2 days). BEZ235 was given first and 30 min later, mice received an injection of HDAC-C1A. A. time activity curve represent [18F]FLT uptake over 60 minutes. Results are mean of at least 3 animals. B. Area under the curve, [18F]FLT uptake in the tumour over 60 minutes. C. NUV60, [18F]FLT uptake in the tumour at 60 minutes. D. Cross section (axial plane) of mice representative of different treatment cohorts. The top pictures show [18F]FLT uptake pictures (PET/CT), the bottom represent the corresponding CT scan. The arrows point the tumour.
We also assessed the potential of [^18F]fluorothymidine positron emission tomography ([^18F]FLT-PET) to measure early response to HDAC-C1A treatment in HCT116 xenograft bearing mice (FIG. 6). There was a 2-fold decrease in tumour [^18F]FLT uptake in animals treated continuously for 48 h compared to vehicle treated controls; the area under the normalized [^18F]FLT time versus activity curve was 117±6.9 before treatment and decreased to 106±5.5 (P=0.02) at 24 hours and 54±5 (P=0.0001) at 48 hours after initiating treatment (FIG. 6.B).
The efficacy of the combination HDAC-C1A (20 mg/kg/day) and BEZ235 ([…]) could be monitored with [^18F]FLT-PET in HCT116 tumour bearing mice as early as 24H-48H. There was a 1.7-fold decrease in tumour [^18F]FLT uptake in animals treated continuously for 24 h-48 h compared to vehicle treated controls; the area under the normalized [^18F]FLT time versus activity curve was 542±17 before treatment and decreased to 312±22 (P=0.0002) at 24-48 hours after initiating treatment (FIG. 16.B).

HCT116 cells = assay: Combination studies, SRB assay, combination index (CalcuSyn); type: cell-based, human
IGROV-1 = assay: Phospho-AKT levels by western blotting; type: cell-based; conditions: ovarian cancer cell line IGROV-1
caco-2 cells = assay: caco-2 transwell permeability assay
γH2AX = γH2AX foci formation (DNA damage marker); conditions: in vitro and in vivo
ABCG2 = target: T1, ABCG2 (Homo sapiens, UniProt Q9UNQ0); assay: Impact of ABCG2 on cytotoxicity, SRB assay, MCF7-MX vs MCF7
T1 sequence (Q9UNQ0 1-655): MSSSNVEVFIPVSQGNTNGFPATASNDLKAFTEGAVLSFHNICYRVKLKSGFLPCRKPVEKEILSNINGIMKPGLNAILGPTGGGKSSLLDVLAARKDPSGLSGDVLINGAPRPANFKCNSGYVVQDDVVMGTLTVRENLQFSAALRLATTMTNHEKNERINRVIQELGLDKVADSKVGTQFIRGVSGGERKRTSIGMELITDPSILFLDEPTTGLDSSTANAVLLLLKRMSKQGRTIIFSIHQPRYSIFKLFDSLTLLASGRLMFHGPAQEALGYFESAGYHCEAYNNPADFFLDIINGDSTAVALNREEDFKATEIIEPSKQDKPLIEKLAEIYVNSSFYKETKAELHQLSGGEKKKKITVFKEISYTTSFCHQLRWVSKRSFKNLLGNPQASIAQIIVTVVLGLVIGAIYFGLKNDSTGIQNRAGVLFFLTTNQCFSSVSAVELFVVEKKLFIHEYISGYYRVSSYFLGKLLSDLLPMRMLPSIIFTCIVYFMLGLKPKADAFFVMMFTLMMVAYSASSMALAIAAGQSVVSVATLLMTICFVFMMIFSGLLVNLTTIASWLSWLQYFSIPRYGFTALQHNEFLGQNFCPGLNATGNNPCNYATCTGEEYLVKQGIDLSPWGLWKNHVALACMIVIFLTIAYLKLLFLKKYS

P-gp = P-gp (Homo sapiens, UniProt P08183)
Chain of P-gp (P08183 whole entry): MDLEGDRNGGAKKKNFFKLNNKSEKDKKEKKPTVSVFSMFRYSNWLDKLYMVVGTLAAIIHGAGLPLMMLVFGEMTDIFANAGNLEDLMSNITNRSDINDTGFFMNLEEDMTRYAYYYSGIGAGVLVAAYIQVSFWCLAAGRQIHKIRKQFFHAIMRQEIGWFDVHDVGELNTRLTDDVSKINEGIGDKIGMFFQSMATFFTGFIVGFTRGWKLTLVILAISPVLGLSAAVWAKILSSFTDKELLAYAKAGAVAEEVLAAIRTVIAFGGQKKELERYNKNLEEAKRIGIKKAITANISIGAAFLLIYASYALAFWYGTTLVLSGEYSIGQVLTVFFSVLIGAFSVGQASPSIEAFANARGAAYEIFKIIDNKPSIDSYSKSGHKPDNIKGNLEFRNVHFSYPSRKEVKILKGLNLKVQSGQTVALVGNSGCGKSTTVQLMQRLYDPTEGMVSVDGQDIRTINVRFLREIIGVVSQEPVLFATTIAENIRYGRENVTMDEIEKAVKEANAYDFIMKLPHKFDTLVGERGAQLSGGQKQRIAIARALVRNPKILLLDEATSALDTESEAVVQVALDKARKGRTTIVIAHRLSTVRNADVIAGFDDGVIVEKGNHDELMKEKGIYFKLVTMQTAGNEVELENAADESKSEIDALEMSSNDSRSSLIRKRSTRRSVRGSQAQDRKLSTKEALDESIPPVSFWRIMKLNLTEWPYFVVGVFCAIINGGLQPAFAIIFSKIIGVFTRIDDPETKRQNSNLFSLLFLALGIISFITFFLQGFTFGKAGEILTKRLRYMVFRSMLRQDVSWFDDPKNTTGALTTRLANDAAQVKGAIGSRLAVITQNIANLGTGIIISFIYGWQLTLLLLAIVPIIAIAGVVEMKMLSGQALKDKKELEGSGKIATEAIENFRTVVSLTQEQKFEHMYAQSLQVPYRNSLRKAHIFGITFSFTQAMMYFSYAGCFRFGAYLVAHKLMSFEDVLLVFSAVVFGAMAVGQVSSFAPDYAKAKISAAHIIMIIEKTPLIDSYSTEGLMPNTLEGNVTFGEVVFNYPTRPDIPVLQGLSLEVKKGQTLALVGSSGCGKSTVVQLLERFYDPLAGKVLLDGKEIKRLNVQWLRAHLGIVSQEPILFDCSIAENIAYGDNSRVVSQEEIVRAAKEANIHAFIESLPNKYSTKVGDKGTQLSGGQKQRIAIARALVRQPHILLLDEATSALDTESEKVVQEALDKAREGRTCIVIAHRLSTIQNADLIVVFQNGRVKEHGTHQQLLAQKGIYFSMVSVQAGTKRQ

CC(/C=C/C(=O)NO)=C\c1ccc(NS(=O)(=O)c2ccc(N(CCCl)CCCl)cc2)cc1 [HDAC-C1A]
mean GI50 [1]: 2 ± 0.4 µg/mL
[18F]FLT-PET in comparison to control animals (HCT116 xenograft; 48 H, HDAC-C1A 40 mg/kg combined with API-2 1 mg/kg): unremarkable
area under the normalized [18F]FLT time versus activity curve (HCT116 xenograft; 24 hours after initiating treatment, 117±6.9 before treatment): 106±5.5
area under the normalized [18F]FLT time versus activity curve (HCT116 xenograft; 48 hours after initiating treatment, 117±6.9 before treatment): 54±5
fold decrease in tumour [18F]FLT uptake vs vehicle (HCT116 xenograft; HDAC-C1A 20 mg/kg/day combined with BEZ235 25 mg/kg/day, 24 h-48 h): 1.7 fold
area under the normalized [18F]FLT time versus activity curve (HCT116 xenograft; HDAC-C1A combined with BEZ235, 24-48 hours, 542±17 before treatment): 312±22
fold decrease in tumour [18F]FLT uptake vs vehicle (HCT116 xenograft; treated continuously for 48 h, 40 mg/kg): 2 fold
concentration of LY-294002 needed to synergise (HCT116 cells): 1 µM
lowest concentration synergising with rapamycin (HCT116 cells; ED50): ≥ 1.9 µM
P-AKT levels (IGROV-1): increased
permeability across caco-2 cells (caco-2 cells; Caco-2): relatively good permeability
substrate of the ABC transporters (caco-2 cells; Caco-2): non substrate
permeability (PappA-B) (caco-2 cells; caco-2 cells): 5.1 ×10⁻⁶ cm/s
PappB-A/PappA-B ratio (caco-2 cells; ratio greater than 3 = actively effluxed): 2.8
γH2AX foci formation (γH2AX): time and a dose dependent increase
fold resistance (GI50 ratio) MCF7-MX vs parental MCF7 (ABCG2; ABCG2 overexpressing): 2.8 fold
reversal of resistance by FTC in MCF7-MX cells (ABCG2; FTC, specific inhibitor of ABCG2): 5.2 fold
fold resistance (GI50 ratio) P-gp over-expressing 3T3 vs parental (P-gp): 17 fold
